Reference: patent US9669003B2, “Use of flavone and flavanone derivatives in preparation of sedative and hypnotic drugs” (priority 2012, dated 2017)
Marks after values point to notes of the source that are not given here.

What was measured:
Format in all cases: in vivo
[1] = system: Kunming mice; assay: Influence on autonomic activity of normal mice (ZIL-2 mice autonomic activity meter, counts within 10 min); conditions: intragastric, x ± s, n = 10; for Times of activities in 1 h after drug administration/10 min: 1 h after administration; for Times of activities in 2 h after drug administration/10 min: 2 h after administration; for Times of activities in 24 h after drug administration/10 min: 24 h after administration
How it was run: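 Kunming mice (10 per group, half each sex) were dosed at 25, 50 or 100 mg/kg in 0.5% CMC-Na. Spontaneous activity counts over 10 min were recorded at 1 h, 2 h and 24 h post-dose. Groups were compared by ANOVA with Dunnett's test after Levene's check.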

[2] = system: Kunming mice; assay: Influence on hypnosis effect with pentobarbital sodium doses below the threshold (25 mg/kg i.p.); conditions: pentobarbital sodium 25 mg/kg i.p. 60 min later, sleep observed in 30 min, n = 10
How it was run: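 Kunming mice (10 per group, half female) given single oral doses of 25, 50 or 100 mg/kg in 0.5% CMC-Na; 60 min later pentobarbital sodium 25 mg/kg i.p. Sleep (righting reflex lost >1 min) scored within 30 min as percentage asleep, χ2 test.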

[3] = system: Kunming mice; assay: Influence on hypnosis effect with pentobarbital sodium doses at the threshold (50 mg/kg i.p.); conditions: pentobarbital sodium 50 mg/kg i.p. 60 min later, x ± s, n = 10
How it was run: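 Kunming mice (10/group, half each sex) received compound in 0.5% CMC-Na intragastrically at 25, 50 or 100 mg/kg; 60 min later given 0.3% sodium pentobarbital 50 mg/kg i.p. Sleep latency and duration recorded by loss of righting reflex over 1 min; ANOVA and χ2 for sleep incidence.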

[4] = test drug 25 mg/kg intragastric single dose
[5] = test drug 50 mg/kg intragastric single dose
[6] = test drug 100 mg/kg intragastric single dose
[7] = 25 mg/kg intragastric single dose
[8] = 50 mg/kg intragastric single dose
[9] = 100 mg/kg intragastric single dose

| SMILES | Times of activities in 1 h after drug administration/10 min ([1]; 25 mg/kg) | Times of activities in 2 h after drug administration/10 min ([1]; 25 mg/kg) | Times of activities in 24 h after drug administration/10 min ([1]; 25 mg/kg) | Times of activities in 1 h after drug administration/10 min ([1]; 50 mg/kg) | Times of activities in 2 h after drug administration/10 min ([1]; 50 mg/kg) | Times of activities in 24 h after drug administration/10 min ([1]; 50 mg/kg) | Times of activities in 1 h after drug administration/10 min ([1]; 100 mg/kg) | Times of activities in 2 h after drug administration/10 min ([1]; 100 mg/kg) | Times of activities in 24 h after drug administration/10 min ([1]; 100 mg/kg) | Number of sleeping animals [2, 4] | rate of sleeping (%) [2, 4] | Number of sleeping animals [2, 5] | rate of sleeping (%) [2, 5] | Number of sleeping animals [2, 6] | rate of sleeping (%) [2, 6] | duration of sleep [3, 7] [min] | time to sleep [3, 7] [min] | duration of sleep [3, 8] [min] | time to sleep [3, 8] [min] | duration of sleep [3, 9] [min] | further results |
| --- | --- | --- | --- | --- | --- | --- | --- | --- | --- | --- | --- | --- | --- | --- | --- | --- | --- | --- | --- | --- | --- |
| O=C1CC(c2ccc(O)c(O)c2)Oc2cc(O)cc(O)c21 (stereo not drawn) [Example 71] | 301.5 ± 58.2 /10 min | 267.8 ± 32.9 /10 min | 318.0 ± 66.9 /10 min | 278.9 ± 45.0 /10 min | 263.0 ± 46.3 /10 min | 322.9 ± 81.4 /10 min | 249.3 ± 41.3 /10 min | 245.8 ± 39.6 /10 min | 325.7 ± 60.9 /10 min | 3 | 30% | 5 | 50* % | 6 | 60** % | 30.48 ± 22.67 | 5.55 ± 1.83 | 36.63 ± 20.19 | 3.73 ± 1.39 | 56.62 ± 24.57 | time to sleep [3, 9]: 3.82 ± 1.40 min |
| CCCc1ccc(C2CC(=O)c3c(O)cc([N+](=O)[O-])cc3O2)cc1OC (stereo not drawn) [Example 61] | 317.3 ± 50.1 /10 min | 289.4 ± 40.2 /10 min | 301.9 ± 77.5 /10 min | 295.1 ± 41.9 /10 min | 250.7 ± 42.8 /10 min | 300.2 ± 91.3 /10 min | 287.1 ± 45.9 /10 min | 221.5 ± 45.8 /10 min | 317.9 ± 80.3 /10 min | 5 | 50** % | 6 | 60** % | 8 | 80*** % | 38.44 ± 15.12 | 4.42 ± 1.43 | 58.53 ± 27.42 | 3.92 ± 1.31 | 58.47 ± 24.40 | time to sleep [3, 9]: 3.79 ± 1.44 min |
| COc1ccc(C2CC(=O)c3c(O)cccc3O2)cc1O (stereo not drawn) [Example 62] | 279.2 ± 45.4 /10 min | 264.9 ± 44.7 /10 min | 309.0 ± 81.9 /10 min | 237.4 ± 41.9 /10 min | 242.6 ± 49.2 /10 min | 297.2 ± 69.5 /10 min | 125.6 ± 32.8 /10 min | 170.3 ± 35.2 /10 min | 279.4 ± 86.3 /10 min | 3 | 30% | 4 | 40* % | 6 | 60** % | 34.29 ± 22.83 | 4.87 ± 1.96 | 57.24 ± 17.30 | 4.21 ± 1.72 | 65.03 ± 32.12 | time to sleep [3, 9]: 3.78 ± 1.90 min |
| COc1cc(OC)c2c(=O)cc(-c3cc(OC)c(OC)c(OC)c3)oc2c1 [Example 1, 5,7,3′,4′,5′-penta methoxyl-flavone] | 215.3 ± 40.1 /10 min | 211.2 ± 36.3 /10 min | 274.4 ± 81.2 /10 min | 137.1 ± 52.3 /10 min | 168.5 ± 57.9 /10 min | 275.2 ± 79.3 /10 min | 98.2 ± 41.9 /10 min | 96.2 ± 55.7 /10 min | 301.2 ± 80.7 /10 min | 5 | 50** % | 7 | 70** % | 10 | 100*** % | 65.42 ± 27.30 | 3.84 ± 1.65 | 78.60 ± 14.67 | 3.54 ± 1.44 | 98.33 ± 21.63 | time to sleep [3, 9]: 2.75 ± 1.62 min |
| COc1ccc(C2CC(=O)c3cc(CCS(=O)(=O)O)c(C4CCNC4)c(N)c3O2)cc1SC#N (stereo not drawn) [Example 55] | 232.5 ± 66.1 /10 min | 229.8 ± 75.0 /10 min | 295.2 ± 89.3 /10 min | 138.3 ± 67.6 /10 min | 135.6 ± 69.2 /10 min | 297.5 ± 81.0 /10 min | 110.8 ± 55.7 /10 min | 103.8 ± 60.9 /10 min | 289.8 ± 89.7 /10 min | 5 | 50** % | 6 | 60** % | 9 | 90*** % | 37.98 ± 13.71 | 4.03 ± 1.97 | 58.53 ± 11.96 | 3.52 ± 2.22 | 65.94 ± 14.95 | time to sleep [3, 9]: 3.21 ± 2.01 min |
| COc1cc(OC)c2c(=O)cc(-c3ccccc3O)oc2c1OC [Example 3, 2′-hydroxyl-5,7,8-trimethoxyl-flavone] | 283.4 ± 45.8 /10 min | 264.7 ± 46.1 /10 min | 305.8 ± 80.9 /10 min | 236.2 ± 41.5 /10 min | 246.3 ± 49.1 /10 min | 298.8 ± 71.0 /10 min | 180.5 ± 35.3 /10 min | 174.7 ± 40.5 /10 min | 286.9 ± 90.4 /10 min | 3 | 30% | 4 | 40* % | 6 | 60** % | 39.65 ± 18.32 | 4.41 ± 1.43 | 56.76 ± 24.86 | 3.90 ± 1.93 | 59.76 ± 25.75 | time to sleep [3, 9]: 3.86 ± 1.22 min |
